Source: patent US12202801B1 (priority 2023, dated 2025)

System: Mycobacterium tuberculosis H37Rv
Assay: Resazurin Microplate Assay (REMA), anti-tubercular activity, H37Rv strain
Type: cell-based
Conditions: 192 h, read-out: Anti-tubercular activity against Mycobacterium tuberculosis (MIC), H37Rv

N#Cc1ccc(C(=O)C[n+]2ccc(C#N)cc2)cc1.[Br-] [Compound 3f, 4-Cyano-1-(2-(4-cyanophenyl)-2-oxoethyl)pyridin-1-ium bromide]
MIC: 1 µg/mL
